Measured values taken from ChEMBL document CHEMBL5321224, “Antimicrobial peptides: Structure, mechanism, and modification” (2023).
One block for each compound: values may come before it. Active and inactive are the calls of the source. The calls are words filed in the database; no cut-off is given here.

Key:
Assay type in all cases: functional
Escherichia coli [1] = test: Antimicrobial activity against Escherichia coli assessed as reduction of microbial growth incubated overnight
Pseudomonas aeruginosa [2] = test: Antimicrobial activity against Pseudomonas aeruginosa assessed as reduction of microbial growth incubated overnight
Staphylococcus aureus [3] = test: Antimicrobial activity against Staphylococcus aureus assessed as reduction of microbial growth incubated overnight
Staphylococcus aureus [4] = test: Antimicrobial activity against Staphylococcus aureus assessed as reduction of microbial growth incubated for 6 to 9 hr by macrodilution method; settings: time 6-9 hrs
Escherichia coli [5] = test: Antimicrobial activity against Escherichia coli assessed as reduction of microbial growth incubated for 6 to 9 hr by macrodilution method; settings: time 6-9 hrs
Pseudomonas aeruginosa [6] = test: Antimicrobial activity against Pseudomonas aeruginosa assessed as reduction of microbial growth incubated for 6 to 9 hr by macrodilution method; settings: time 6-9 hrs
Staphylococcus aureus [7] = test: Antimicrobial activity against Staphylococcus aureus assessed as reduction of microbial growth incubated for 18 to 24 hrs by microdilution method; settings: time 18-24 hrs
Escherichia coli [8] = test: Antimicrobial activity against Escherichia coli assessed as reduction of microbial growth incubated for 18 to 24 hrs by microdilution method; settings: time 18-24 hrs
Pseudomonas aeruginosa [9] = test: Antimicrobial activity against Pseudomonas aeruginosa assessed as reduction of microbial growth incubated for 18 to 24 hrs by microdilution method; settings: time 18-24 hrs
Staphylococcus aureus [10] = test: Antimicrobial activity against Staphylococcus aureus assessed as reduction of microbial growth
Escherichia coli [11] = test: Antimicrobial activity against Escherichia coli assessed as reduction of microbial growth
Pseudomonas aeruginosa [12] = test: Antimicrobial activity against Pseudomonas aeruginosa assessed as reduction of microbial growth
Pseudomonas aeruginosa [13] = test: Antimicrobial activity against Pseudomonas aeruginosa assessed as reduction of microbial growth incubated for 24 hrs
Escherichia coli [14] = test: Antimicrobial activity against Escherichia coli assessed as reduction of microbial growth incubated for 24 hrs
Staphylococcus aureus [15] = test: Antimicrobial activity against Staphylococcus aureus assessed as reduction of microbial growth incubated for 24 hrs
Staphylococcus aureus [16] = test: Antimicrobial activity against Staphylococcus aureus
Escherichia coli [17] = test: Antimicrobial activity against Escherichia coli
Pseudomonas aeruginosa [18] = test: Antimicrobial activity against Pseudomonas aeruginosa
Staphylococcus aureus [19] = test: Antimicrobial activity against Staphylococcus aureus Cowan 1 assessed as reduction of microbial
Pseudomonas aeruginosa [20] = test: Antimicrobial activity against Pseudomonas aeruginosa OT97 assessed as reduction of microbial
Escherichia coli [21] = test: Antimicrobial activity against Escherichia coli D21 assessed as reduction of microbial growth; settings: time 24 hrs

Compound: CC[C@H](C)[C@H](NC(=O)[C@H](CCCCN)NC(=O)[C@H](CCCCN)NC(=O)[C@H](Cc1ccccc1)NC(=O)[C@H](CC(C)C)NC(=O)[C@H](CCCCN)NC(=O)[C@H](Cc1c[nH]c2ccccc12)NC(=O)[C@@H](N)CCCCN)C(=O)N[C@@H](CCC(=O)O)C(=O)N[C@@H](CCCCN)C(=O)N[C@H](C(=O)NCC(=O)N[C@@H](CCC(N)=O)C(=O)NCC(=O)N[C@@H](C(=O)NCC(=O)N[C@@H](C)C(=O)N[C@H](C(=O)N[C@@H](CC(C)C)C(=O)N[C@@H](CCCCN)C(=O)N[C@H](C(=O)N[C@@H](CC(C)C)C(=O)N[C@H](C(=O)N[C@H](C(=O)NCC(=O)N[C@@H](CC(C)C)C(=O)O)[C@@H](C)O)[C@@H](C)O)C(C)C)C(C)C)[C@@H](C)CC)C(C)C
- LD (Escherichia coli [1]): 0.5 µM
- LD (Pseudomonas aeruginosa [2]): 1 µM
- LD (Staphylococcus aureus [3]): 2 µM

- MIC (Staphylococcus aureus [4]): 25 µg/mL
- MIC (Escherichia coli [5]): 25 µg/mL
- MIC (Pseudomonas aeruginosa [6]): > 100 µg/mL
Compound: Ac-GIGKFLHAAKKFAKAFVAEIMNS-NH2

- MIC (Staphylococcus aureus [7]): 12.5 µg/mL
- MIC (Escherichia coli [8]): 6.25 µg/mL
- MIC (Pseudomonas aeruginosa [9]): 6.25 µg/mL
Compound: H-KKKKKKKKKKGIGKFLHSAKKFGKAFVGEIMNS-OH

Compound: H-GIGKFLHSAKKFGKAFVGEIMNS-OH [MAGAININ 2]
- MIC (Staphylococcus aureus [10]): inactive
- MIC (Escherichia coli [11]): 1 µg/mL
- MIC (Staphylococcus aureus [7]): ≥ 100 µg/mL
- MIC (Pseudomonas aeruginosa [12]): inactive
- MIC (Escherichia coli [8]): 50 µg/mL
- MIC (Pseudomonas aeruginosa [9]): 50 µg/mL

Compound: CC[C@H](C)[C@H](NC(=O)CN)C(=O)NCC(=O)N[C@@H](C)C(=O)N[C@H](C(=O)N[C@@H](CC(C)C)C(=O)N[C@@H](CCCCN)C(=O)N[C@H](C(=O)N[C@@H](CC(C)C)C(=O)N[C@H](C(=O)N[C@H](C(=O)NCC(=O)N[C@@H](CC(C)C)C(=O)N[C@@H](CCCCN)C(=O)N[C@@H](Cc1c[nH]c2ccccc12)C(=O)N[C@@H](CCCCN)C(=O)N[C@@H](CC(C)C)C(=O)N[C@@H](Cc1ccccc1)C(=O)N[C@@H](CCCCN)C(=O)N[C@@H](CCCCN)C(=O)N[C@H](C(=O)N[C@@H](CCC(=O)O)C(=O)N[C@@H](CCCCN)C(=O)N[C@H](C(=O)NCC(=O)N[C@@H](CCC(N)=O)C(=O)N[C@@H](CC(N)=O)C(=O)N[C@H](C(=O)N[C@@H](CCCNC(=N)N)C(=O)N[C@@H](CC(=O)O)C(=O)NCC(=O)N[C@H](C(=O)N[C@H](C(=O)N[C@@H](CCCCN)C(=O)N[C@@H](C)C(=O)O)[C@@H](C)CC)[C@@H](C)CC)[C@@H](C)CC)C(C)C)[C@@H](C)CC)[C@@H](C)O)[C@@H](C)O)C(C)C)C(C)C
- LD (Pseudomonas aeruginosa [13]): 8 µM
- LD (Escherichia coli [14]): 0.7 µM
- LD (Staphylococcus aureus [15]): 5 µM

- MIC (Staphylococcus aureus [10]): > 256 µg/mL
- MIC (Escherichia coli [11]): 128 µg/mL
- MIC (Pseudomonas aeruginosa [12]): 256 µg/mL
Compound: H-GIGKFLHSAKKFGKAFVGEIMNS-NH2

- MIC (Staphylococcus aureus [7]): 3.1 µg/mL
- MIC (Escherichia coli [8]): 50 µg/mL
- MIC (Pseudomonas aeruginosa [9]): 3.1 µg/mL
Compound: H-GIGKFLHSAKKFGKAFVGEIMNSKKKKKKKKKK-OH

Compound: H-KWKLFKKIEKVGQNIRDGGIGAVLKV-OH
- LD (Pseudomonas aeruginosa [13]): 15 µM
- LD (Escherichia coli [14]): 1 µM
- LD (Staphylococcus aureus [15]): 600 µM

Compound: H-KWKLFKKIGAVLKVL-OH
- LD (Staphylococcus aureus [16]): 2 µM
- LD (Escherichia coli [17]): 1 µM
- LD (Pseudomonas aeruginosa [18]): 4 µM

- MIC (Staphylococcus aureus [10]): inactive
- MIC (Escherichia coli [11]): 200 µg/mL
- MIC (Pseudomonas aeruginosa [12]): inactive
Compound: H-FLHSAKKFGKAFVGEIMNS-OH

Compound: H-KWKLFKKIGIGAVLKVLKTTGLPALI-OH
- LD (Staphylococcus aureus [19]): 1 µM
- LD (Pseudomonas aeruginosa [20]): 0.7 µM
- LD (Escherichia coli [21]): 0.3 µM

Compound: CC[C@H](C)[C@H](NC(=O)CN)C(=O)NCC(=O)N[C@@H](C)C(=O)N[C@H](C(=O)N[C@@H](CC(C)C)C(=O)N[C@@H](CCCCN)C(=O)N[C@H](C(=O)N[C@@H](CC(C)C)C(=O)N[C@H](C(=O)N[C@H](C(=O)NCC(=O)N[C@@H](CC(C)C)C(=O)N1CCC[C@H]1C(=O)N[C@@H](C)C(=O)N[C@@H](CC(C)C)C(=O)N[C@H](C(=O)N[C@@H](CO)C(=O)N[C@@H](Cc1c[nH]c2ccccc12)C(=O)N[C@H](C(=O)N[C@@H](CCCCN)C(=O)N[C@@H](CCCNC(=N)N)C(=O)N[C@@H](CCCCN)C(=O)N[C@@H](CCCNC(=N)N)C(=O)N[C@@H](CCC(N)=O)C(=O)N[C@@H](CCC(N)=O)C(N)=O)[C@@H](C)CC)[C@@H](C)CC)[C@@H](C)O)[C@@H](C)O)C(C)C)C(C)C [MELITTIN]
- LD (Escherichia coli [1]): 0.8 µM
- LD (Pseudomonas aeruginosa [2]): 3 µM
- LD (Staphylococcus aureus [3]): 0.2 µM
